Results taken from patent publication US20250120417A1, “FEED ADDITIVE COMPOSITIONS AND METHODS FOR USING THE SAME” (INT[…]&H DENMARK APS, priority 2021, published 2025).

What was measured:
NetB toxin = assay type: cell-based, Clostridium perfringens strain 25037-CP01
netB gene = assay type: cell-based, Clostridium perfringens
HT-29 cells = assay type: cell-based, human

Row | Molecule | level of extracellular NetB toxin secreted into the media (NetB toxin) | netB expression / toxin producing population in single cell data (netB gene) | HT29 cell death (HT-29 cells)
1 | Cc1ncc(C[n+]2csc(CCO)c2C)c(N)n1 [Vitamin B1] | reduced | – | –
2 | Cc1ncc(CO)c(CO)c1O.Cl [Vitamin B6] | reduced | – | –
3 | N=C(N)NCCC[C@H](N)C(=O)O [arginine] | – | small reduction | –
4 | N[C@@H](CC(=O)O)C(=O)O [aspartic acid] | lower the level | marked reduction | less than 10%
5 | NCCC[C@H](N)C(=O)O [ornithine] | – | small reduction | –
6 | CC(=O)[O-].[Na+] [sodium acetate] | reduced | – | –
7 | Vitamin B12 | reduced | – | –
8 | ammonium phosphate | reduced | – | –
